In patent US12624017B2, “Salt form of isoquinolinone type compound as rock inhibitor and preparation method therefor” (GUANGZHOU OCUSUN OPHTHALMIC BIOTECHNOLOGY CO., LTD., priority 2020, dated 2026):

Test system: New Zealand rabbits with normal intraocular pressure
Experiment: Intraocular pressure reduction, normal intraocular pressure, eye drops in both eyes for 14 days (Operation I)
Format: in vivo, New Zealand white rabbits
Details: for Change in intraocular pressure: vs negative control
Source text: An intraocular pressure reduction effect and potential ocular toxicity of the compound of formula (I) were inspected with rabbits with normal intraocular pressure by repeated administration of eye drops for 14 days.
Male New Zealand white rabbits, aged 97 to 127 days, weighted 2.6-3.5 kg, purchased from Pizhou Oriental Breeding Co., Ltd.
The Male New Zealand white rabbits were randomly divided into 7 groups according to body weights, 6 rabbits/group. The animals in Groups 1 to 7 were administrated dropwise with a solvent/control/test article in both eyes in an administration volume of 50 μL/eye, once a day for 14 consecutive days, and the day of first administration was recorded as Day 1. The intraocular pressures of the animals were measured before administration, as well as at 1, 2, 4, 6, 8 and 10 h after administration, respectively. On Days 2 to 14, the intraocular pressures of animals in the K-115 administration group were measured at 1 h after daily administration; and intraocular pressures of the animals in the remaining groups were measured at 4 h after daily administration.

[1] = 0.5 mg/mL once a day, Day 2, 4 h after daily administration
[2] = 0.5 mg/mL once a day, Day 3, 4 h after daily administration
[3] = 0.5 mg/mL once a day, Day 4, 4 h after daily administration
[4] = 0.5 mg/mL once a day, Day 5, 4 h after daily administration
[5] = 0.5 mg/mL once a day, Day 6, 4 h after daily administration
[6] = 0.5 mg/mL once a day, Day 7, 4 h after daily administration
[7] = 0.5 mg/mL, Day 1, 1 h after administration
[8] = 0.5 mg/mL, Day 1, 2 h after administration
[9] = 0.5 mg/mL, Day 1, 4 h after administration
[10] = 0.5 mg/mL, Day 1, 6 h after administration
[11] = 0.5 mg/mL, Day 1, 8 h after administration
[12] = 0.5 mg/mL, Day 1, 10 h after administration
[13] = 0.5 mg/mL, Day 1, before administration
[14] = 1.0 mg/mL once a day, Day 2, 4 h after daily administration
[15] = 1.0 mg/mL once a day, Day 3, 4 h after daily administration
[16] = 1.0 mg/mL once a day, Day 4, 4 h after daily administration
[17] = 1.0 mg/mL once a day, Day 5, 4 h after daily administration
[18] = 1.0 mg/mL once a day, Day 6, 4 h after daily administration
[19] = 1.0 mg/mL once a day, Day 7, 4 h after daily administration
[20] = 1.0 mg/mL, Day 1, 1 h after administration
[21] = 1.0 mg/mL, Day 1, 2 h after administration
[22] = 1.0 mg/mL, Day 1, 4 h after administration
[23] = 1.0 mg/mL, Day 1, 6 h after administration
[24] = 1.0 mg/mL, Day 1, 8 h after administration
[25] = 1.0 mg/mL, Day 1, 10 h after administration
[26] = 1.0 mg/mL, Day 1, before administration
[27] = 2.0 mg/mL once a day, Day 2, 4 h after daily administration
[28] = 2.0 mg/mL once a day, Day 3, 4 h after daily administration
[29] = 2.0 mg/mL once a day, Day 4, 4 h after daily administration
[30] = 2.0 mg/mL once a day, Day 5, 4 h after daily administration
[31] = 2.0 mg/mL once a day, Day 6, 4 h after daily administration
[32] = 2.0 mg/mL once a day, Day 7, 4 h after daily administration
[33] = 2.0 mg/mL, Day 1, 1 h after administration

## Cc1ccc(C(=O)OCn2cc(C)c3c(S(=O)(=O)N4CC[C@H](N)C4)cccc3c2=O)c(C)c1 [Compound of formula (I)]
[1]
  Average intraocular pressure in both eyes: 7.94 mmHg
  Change in intraocular pressure: 3.14 mmHg
[2]
  Average intraocular pressure in both eyes: 7.31 mmHg
  Change in intraocular pressure: 3.08 mmHg
[3]
  Average intraocular pressure in both eyes: 7.78 mmHg
  Change in intraocular pressure: 2.83 mmHg
[4]
  Average intraocular pressure in both eyes: 7.19 mmHg
  Change in intraocular pressure: 3.78 mmHg
[5]
  Average intraocular pressure in both eyes: 6.61 mmHg
  Change in intraocular pressure: 2.7 mmHg
[6]
  Average intraocular pressure in both eyes: 6.00 mmHg
  Change in intraocular pressure: 4.06 mmHg
0.5 mg/mL once a day, Day 8, 4 h after daily administration
  Change in intraocular pressure: 4.2 mmHg
0.5 mg/mL once a day, Day 9, 4 h after daily administration
  Change in intraocular pressure: 3.25 mmHg
0.5 mg/mL once a day, Day 10, 4 h after daily administration
  Change in intraocular pressure: 3 mmHg
0.5 mg/mL once a day, Day 11, 4 h after daily administration
  Change in intraocular pressure: 3.25 mmHg
0.5 mg/mL once a day, Day 12, 4 h after daily administration
  Change in intraocular pressure: 3.28 mmHg
0.5 mg/mL once a day, Day 13, 4 h after daily administration
  Change in intraocular pressure: 3.31 mmHg
0.5 mg/mL once a day, Day 14, 4 h after daily administration
  Change in intraocular pressure: 3.72 mmHg
[7]
  Average intraocular pressure in both eyes: 8.83 mmHg
  Change in intraocular pressure: 1.48 mmHg
[8]
  Average intraocular pressure in both eyes: 7.56 mmHg
  Change in intraocular pressure: 3.41 mmHg
[9]
  Average intraocular pressure in both eyes: 7.11 mmHg
  Change in intraocular pressure: 4.2 mmHg
[10]
  Average intraocular pressure in both eyes: 9.61 mmHg
  Change in intraocular pressure: 2.33 mmHg
[11]
  Average intraocular pressure in both eyes: 9.06 mmHg
  Change in intraocular pressure: 3.91 mmHg
[12]
  Average intraocular pressure in both eyes: 9.97 mmHg
  Change in intraocular pressure: 4.45 mmHg
[13]
  Average intraocular pressure in both eyes: 10.11 mmHg
  Change in intraocular pressure: −0.22 mmHg
[14]
  Average intraocular pressure in both eyes: 7.64 mmHg
  Change in intraocular pressure: 3.44 mmHg
[15]
  Average intraocular pressure in both eyes: 7.50 mmHg
  Change in intraocular pressure: 2.89 mmHg
[16]
  Average intraocular pressure in both eyes: 7.33 mmHg
  Change in intraocular pressure: 3.28 mmHg
[17]
  Average intraocular pressure in both eyes: 7.44 mmHg
  Change in intraocular pressure: 3.53 mmHg
[18]
  Average intraocular pressure in both eyes: 6.92 mmHg
  Change in intraocular pressure: 2.39 mmHg
[19]
  Average intraocular pressure in both eyes: 7.00 mmHg
  Change in intraocular pressure: 3.06 mmHg
1.0 mg/mL once a day, Day 8, 4 h after daily administration
  Change in intraocular pressure: 4.03 mmHg
1.0 mg/mL once a day, Day 9, 4 h after daily administration
  Change in intraocular pressure: 2.5 mmHg
1.0 mg/mL once a day, Day 10, 4 h after daily administration
  Change in intraocular pressure: 2.44 mmHg
1.0 mg/mL once a day, Day 11, 4 h after daily administration
  Change in intraocular pressure: 2.19 mmHg
1.0 mg/mL once a day, Day 12, 4 h after daily administration
  Change in intraocular pressure: 2.64 mmHg
1.0 mg/mL once a day, Day 13, 4 h after daily administration
  Change in intraocular pressure: 3.33 mmHg
1.0 mg/mL once a day, Day 14, 4 h after daily administration
  Change in intraocular pressure: 3.53 mmHg
[20]
  Average intraocular pressure in both eyes: 7.08 mmHg
  Change in intraocular pressure: 3.23 mmHg
[21]
  Average intraocular pressure in both eyes: 6.67 mmHg
  Change in intraocular pressure: 4.3 mmHg
[22]
  Average intraocular pressure in both eyes: 6.44 mmHg
  Change in intraocular pressure: 4.87 mmHg
[23]
  Average intraocular pressure in both eyes: 8.00 mmHg
  Change in intraocular pressure: 3.94 mmHg
[24]
  Average intraocular pressure in both eyes: 9.22 mmHg
  Change in intraocular pressure: 3.75 mmHg
[25]
  Average intraocular pressure in both eyes: 10.56 mmHg
  Change in intraocular pressure: 3.86 mmHg
[26]
  Average intraocular pressure in both eyes: 9.94 mmHg
  Change in intraocular pressure: −0.05 mmHg
[27]
  Average intraocular pressure in both eyes: 7.03 mmHg
  Change in intraocular pressure: 4.05 mmHg
[28]
  Average intraocular pressure in both eyes: 7.25 mmHg
  Change in intraocular pressure: 3.14 mmHg
[29]
  Average intraocular pressure in both eyes: 6.86 mmHg
  Change in intraocular pressure: 3.75 mmHg
[30]
  Average intraocular pressure in both eyes: 6.47 mmHg
  Change in intraocular pressure: 4.5 mmHg
[31]
  Average intraocular pressure in both eyes: 5.92 mmHg
  Change in intraocular pressure: 3.39 mmHg
[32]
  Average intraocular pressure in both eyes: 5.78 mmHg
  Change in intraocular pressure: 4.28 mmHg
2.0 mg/mL once a day, Day 8, 4 h after daily administration
  Change in intraocular pressure: 4.53 mmHg
2.0 mg/mL once a day, Day 9, 4 h after daily administration
  Change in intraocular pressure: 3.72 mmHg
2.0 mg/mL once a day, Day 10, 4 h after daily administration
  Change in intraocular pressure: 3.81 mmHg
2.0 mg/mL once a day, Day 11, 4 h after daily administration
  Change in intraocular pressure: 3.66 mmHg
2.0 mg/mL once a day, Day 12, 4 h after daily administration
  Change in intraocular pressure: 3.5 mmHg
2.0 mg/mL once a day, Day 13, 4 h after daily administration
  Change in intraocular pressure: 4.28 mmHg
2.0 mg/mL once a day, Day 14, 4 h after daily administration
  Change in intraocular pressure: 3.91 mmHg
[33]
  Average intraocular pressure in both eyes: 8.56 mmHg
  Change in intraocular pressure: 1.75 mmHg
